Data as given in ChEMBL document CHEMBL4507303, “Data for DCP probe TP-004” (2021).

Columns and labels:
[1] = target: AP2-associated protein kinase 1 (Homo sapiens) (UniProt Q2M2I8); details: Compound concentration 1000.0 nM
[2] = target: Mitogen-activated protein kinase kinase kinase 5 (Homo sapiens) (UniProt Q99683); details: Compound concentration 1000.0 nM
[3] = target: Calcium/calmodulin-dependent protein kinase type IV (Homo sapiens) (UniProt Q16566); details: Compound concentration 1000.0 nM
[4] = target: Cyclin-dependent kinase 9 (Homo sapiens) (UniProt P50750); details: Compound concentration 1000.0 nM
[5] = target: Cyclin-dependent kinase-like 2 (Homo sapiens) (UniProt Q92772); details: Compound concentration 1000.0 nM
[6] = target: Cyclin-dependent kinase-like 5 (Homo sapiens) (UniProt O76039); details: Compound concentration 1000.0 nM
[7] = target: Dual specificity protein kinase CLK3 (Homo sapiens) (UniProt P49761); details: Compound concentration 1000.0 nM
[8] = target: Serine/threonine-protein kinase DCLK1 (Homo sapiens) (UniProt O15075); details: Compound concentration 1000.0 nM
[9] = system: Epidermal growth factor receptor (Homo sapiens), P00533 [L858R]; details: Compound concentration 1000.0 nM
[10] = target: Ephrin type-A receptor 8 (Homo sapiens) (UniProt P29322); details: Compound concentration 1000.0 nM
[11] = target: Receptor tyrosine-protein kinase erbB-4 (Homo sapiens) (UniProt Q15303); details: Compound concentration 1000.0 nM
[12] = target: Tyrosine-protein kinase Fes/Fps (Homo sapiens) (UniProt P07332); details: Compound concentration 1000.0 nM
Sequence of Tyrosine-protein kinase Fes/Fps (Homo sapiens) (P07332 whole entry): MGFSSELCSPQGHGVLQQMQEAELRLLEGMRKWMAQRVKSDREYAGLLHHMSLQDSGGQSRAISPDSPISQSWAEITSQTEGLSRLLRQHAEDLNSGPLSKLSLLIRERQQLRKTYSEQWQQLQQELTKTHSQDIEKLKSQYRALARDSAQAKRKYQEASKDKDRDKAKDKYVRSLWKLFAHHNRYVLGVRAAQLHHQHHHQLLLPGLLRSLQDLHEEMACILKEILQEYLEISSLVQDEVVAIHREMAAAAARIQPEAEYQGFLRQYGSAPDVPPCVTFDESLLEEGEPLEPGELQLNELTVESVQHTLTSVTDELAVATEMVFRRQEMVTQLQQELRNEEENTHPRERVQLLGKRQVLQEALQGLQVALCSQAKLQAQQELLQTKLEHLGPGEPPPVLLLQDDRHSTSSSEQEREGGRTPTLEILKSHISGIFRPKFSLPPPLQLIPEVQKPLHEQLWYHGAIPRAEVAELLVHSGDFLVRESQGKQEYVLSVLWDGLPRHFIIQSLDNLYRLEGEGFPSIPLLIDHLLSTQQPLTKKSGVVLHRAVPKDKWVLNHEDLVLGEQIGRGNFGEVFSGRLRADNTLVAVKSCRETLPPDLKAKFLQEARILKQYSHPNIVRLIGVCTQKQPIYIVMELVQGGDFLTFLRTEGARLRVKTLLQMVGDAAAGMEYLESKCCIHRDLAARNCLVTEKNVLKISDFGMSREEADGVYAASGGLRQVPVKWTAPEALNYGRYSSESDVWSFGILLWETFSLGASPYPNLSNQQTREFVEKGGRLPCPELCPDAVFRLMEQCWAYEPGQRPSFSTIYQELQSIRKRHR

[13] = system: Receptor-type tyrosine-protein kinase FLT3 (Homo sapiens), P36888 [N841I]; details: Compound concentration 1000.0 nM
[14] = target: Tyrosine-protein kinase JAK1 (Homo sapiens) (UniProt P23458); details: Compound concentration 1000.0 nM
[15] = system: Leucine-rich repeat serine/threonine-protein kinase 2 (Homo sapiens), Q5S007 [G2019S]; details: Compound concentration 1000.0 nM
[16] = target: MAP kinase-interacting serine/threonine-protein kinase 1 (Homo sapiens) (UniProt Q9BUB5); details: Compound concentration 1000.0 nM
[17] = target: Mitogen-activated protein kinase kinase kinase 11 (Homo sapiens) (UniProt Q16584); details: Compound concentration 1000.0 nM
[18] = target: Serine/threonine-protein kinase MRCK beta (Homo sapiens) (UniProt Q9Y5S2); details: Compound concentration 1000.0 nM
Sequence of Serine/threonine-protein kinase MRCK beta (Homo sapiens) (Q9Y5S2 whole entry): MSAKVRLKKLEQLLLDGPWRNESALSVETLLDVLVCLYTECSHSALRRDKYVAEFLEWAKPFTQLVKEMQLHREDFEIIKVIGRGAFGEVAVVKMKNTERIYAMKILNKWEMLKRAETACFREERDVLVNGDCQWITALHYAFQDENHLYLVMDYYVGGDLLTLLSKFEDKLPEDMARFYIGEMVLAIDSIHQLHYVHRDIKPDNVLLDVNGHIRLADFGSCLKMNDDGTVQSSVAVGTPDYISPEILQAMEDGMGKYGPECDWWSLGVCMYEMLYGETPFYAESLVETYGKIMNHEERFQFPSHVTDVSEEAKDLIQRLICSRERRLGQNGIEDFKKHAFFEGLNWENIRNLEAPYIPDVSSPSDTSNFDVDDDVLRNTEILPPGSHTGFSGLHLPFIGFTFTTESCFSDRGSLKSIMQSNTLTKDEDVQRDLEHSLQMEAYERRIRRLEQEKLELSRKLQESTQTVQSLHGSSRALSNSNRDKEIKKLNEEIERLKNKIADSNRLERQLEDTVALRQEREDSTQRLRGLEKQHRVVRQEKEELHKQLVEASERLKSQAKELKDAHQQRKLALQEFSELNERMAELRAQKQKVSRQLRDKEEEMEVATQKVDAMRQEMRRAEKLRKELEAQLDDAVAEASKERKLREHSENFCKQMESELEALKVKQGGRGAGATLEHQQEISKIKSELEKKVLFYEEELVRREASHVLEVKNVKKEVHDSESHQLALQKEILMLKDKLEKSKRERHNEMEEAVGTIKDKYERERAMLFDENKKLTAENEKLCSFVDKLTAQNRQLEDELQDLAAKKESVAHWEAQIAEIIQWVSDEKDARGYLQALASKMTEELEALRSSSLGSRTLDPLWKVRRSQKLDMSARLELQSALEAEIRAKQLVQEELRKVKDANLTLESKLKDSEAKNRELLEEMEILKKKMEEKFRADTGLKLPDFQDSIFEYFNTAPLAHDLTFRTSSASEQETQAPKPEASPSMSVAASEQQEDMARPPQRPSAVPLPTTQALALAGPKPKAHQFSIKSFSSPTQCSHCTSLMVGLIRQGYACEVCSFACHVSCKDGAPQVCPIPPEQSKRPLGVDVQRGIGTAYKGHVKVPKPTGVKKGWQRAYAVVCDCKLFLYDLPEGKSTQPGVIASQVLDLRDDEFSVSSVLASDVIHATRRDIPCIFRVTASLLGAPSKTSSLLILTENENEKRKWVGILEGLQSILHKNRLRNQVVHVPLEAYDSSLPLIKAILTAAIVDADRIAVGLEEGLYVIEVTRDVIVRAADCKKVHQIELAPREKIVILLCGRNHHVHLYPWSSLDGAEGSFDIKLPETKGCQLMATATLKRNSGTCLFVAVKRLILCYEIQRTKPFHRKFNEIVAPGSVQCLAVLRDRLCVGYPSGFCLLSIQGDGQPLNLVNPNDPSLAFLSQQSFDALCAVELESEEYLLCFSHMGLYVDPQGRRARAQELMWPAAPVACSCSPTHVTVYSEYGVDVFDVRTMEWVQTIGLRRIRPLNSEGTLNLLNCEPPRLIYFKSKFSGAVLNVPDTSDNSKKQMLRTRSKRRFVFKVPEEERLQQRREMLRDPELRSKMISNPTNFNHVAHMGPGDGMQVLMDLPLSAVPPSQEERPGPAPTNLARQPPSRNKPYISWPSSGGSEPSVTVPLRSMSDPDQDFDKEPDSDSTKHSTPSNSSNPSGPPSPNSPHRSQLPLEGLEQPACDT

[19] = target: Myosin light chain kinase family member 4 (Homo sapiens) (UniProt Q86YV6); details: Compound concentration 1000.0 nM
[20] = target: Serine/threonine-protein kinase Nek10 (Homo sapiens) (UniProt Q6ZWH5); details: Compound concentration 1000.0 nM
[21] = target: Serine/threonine-protein kinase Nek2 (Homo sapiens) (UniProt P51955); details: Compound concentration 1000.0 nM
[22] = target: Serine/threonine-protein kinase Nek4 (Homo sapiens) (UniProt P51957); details: Compound concentration 1000.0 nM
[23] = target: Mitogen-activated protein kinase kinase kinase 14 (Homo sapiens) (UniProt Q99558); details: Compound concentration 1000.0 nM
Sequence of Mitogen-activated protein kinase kinase kinase 14 (Homo sapiens) (Q99558 whole entry, looked up, canonical isoform): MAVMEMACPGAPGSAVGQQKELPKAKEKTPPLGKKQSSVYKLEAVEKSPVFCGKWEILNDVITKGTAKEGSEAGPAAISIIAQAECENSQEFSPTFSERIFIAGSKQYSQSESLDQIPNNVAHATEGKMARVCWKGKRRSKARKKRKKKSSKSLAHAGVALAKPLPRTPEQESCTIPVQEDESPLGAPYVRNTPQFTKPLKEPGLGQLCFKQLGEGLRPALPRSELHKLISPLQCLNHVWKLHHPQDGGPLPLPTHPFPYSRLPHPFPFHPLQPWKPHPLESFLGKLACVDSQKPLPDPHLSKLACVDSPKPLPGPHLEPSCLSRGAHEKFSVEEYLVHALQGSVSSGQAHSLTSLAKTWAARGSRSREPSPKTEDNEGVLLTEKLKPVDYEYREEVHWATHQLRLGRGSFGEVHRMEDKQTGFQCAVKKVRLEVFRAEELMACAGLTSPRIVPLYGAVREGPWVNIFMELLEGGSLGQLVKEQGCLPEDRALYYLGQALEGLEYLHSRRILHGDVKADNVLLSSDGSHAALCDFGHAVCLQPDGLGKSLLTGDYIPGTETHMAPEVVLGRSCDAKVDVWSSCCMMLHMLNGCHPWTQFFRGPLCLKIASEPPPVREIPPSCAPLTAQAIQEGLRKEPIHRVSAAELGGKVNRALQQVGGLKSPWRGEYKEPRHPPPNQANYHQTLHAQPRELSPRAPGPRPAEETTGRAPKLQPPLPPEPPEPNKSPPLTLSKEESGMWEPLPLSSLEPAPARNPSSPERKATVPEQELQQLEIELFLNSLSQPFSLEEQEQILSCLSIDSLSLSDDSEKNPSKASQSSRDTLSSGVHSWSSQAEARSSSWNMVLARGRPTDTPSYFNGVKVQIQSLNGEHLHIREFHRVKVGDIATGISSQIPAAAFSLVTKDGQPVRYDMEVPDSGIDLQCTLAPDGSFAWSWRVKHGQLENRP

[24] = target: Phosphorylase b kinase regulatory subunit alpha, liver isoform (Homo sapiens) (UniProt P46019); details: Compound concentration 1000.0 nM
[25] = target: Phosphatidylinositol 3-kinase C2 domain-containing subunit gamma (Homo sapiens) (UniProt O75747); details: Compound concentration 1000.0 nM
[26] = system: Phosphatidylinositol 4,5-bisphosphate 3-kinase catalytic subunit alpha isoform (Homo sapiens), P42336 [E542K]; details: Compound concentration 1000.0 nM
[27] = system: Phosphatidylinositol 4,5-bisphosphate 3-kinase catalytic subunit alpha isoform (Homo sapiens), P42336 [E545A]; details: Compound concentration 1000.0 nM
[28] = system: Phosphatidylinositol 4,5-bisphosphate 3-kinase catalytic subunit alpha isoform (Homo sapiens), P42336 [H1047L]; details: Compound concentration 1000.0 nM
[29] = target: 1-phosphatidylinositol 3-phosphate 5-kinase (Homo sapiens) (UniProt Q9Y2I7); details: Compound concentration 1000.0 nM
[30] = target: Protein kinase C epsilon type (Homo sapiens) (UniProt Q02156); details: Compound concentration 1000.0 nM
[31] = target: Proto-oncogene tyrosine-protein kinase receptor Ret (Homo sapiens) (UniProt P07949); details: Compound concentration 1000.0 nM
[32] = target: Ribosomal protein S6 kinase alpha-6 (Homo sapiens) (UniProt Q9UK32); details: Compound concentration 1000.0 nM
[33] = target: Ribosomal protein S6 kinase beta-1 (Homo sapiens) (UniProt P23443); details: Compound concentration 1000.0 nM
[34] = target: Serine/threonine-protein kinase SIK1 (Homo sapiens) (UniProt P57059); details: Compound concentration 1000.0 nM
[35] = target: STE20/SPS1-related proline-alanine-rich protein kinase (Homo sapiens) (UniProt Q9UEW8); details: Compound concentration 1000.0 nM
[36] = target: TRAF2 and NCK-interacting protein kinase (Homo sapiens) (UniProt Q9UKE5); details: Compound concentration 1000.0 nM
[37] = target: Non-receptor tyrosine-protein kinase TYK2 (Homo sapiens) (UniProt P29597); details: Compound concentration 1000.0 nM
[38] = target: Wee1-like protein kinase 2 (Homo sapiens) (UniProt P0C1S8); details: Compound concentration 1000.0 nM
[39] = target: Tyrosine-protein kinase ZAP-70 (Homo sapiens) (UniProt P43403); details: Compound concentration 1000.0 nM
[40] = target: 5-hydroxytryptamine receptor 2B (Homo sapiens) (UniProt P41595); details: Compound concentration 10.0 uM
[41] = target: 5-hydroxytryptamine receptor 2C (Homo sapiens) (UniProt P28335); details: Compound concentration 10.0 uM
[42] = target: Kappa-type opioid receptor (Homo sapiens) (UniProt P41145); details: Compound concentration 10.0 uM
Sequence of Kappa-type opioid receptor (Homo sapiens) (P41145 whole entry): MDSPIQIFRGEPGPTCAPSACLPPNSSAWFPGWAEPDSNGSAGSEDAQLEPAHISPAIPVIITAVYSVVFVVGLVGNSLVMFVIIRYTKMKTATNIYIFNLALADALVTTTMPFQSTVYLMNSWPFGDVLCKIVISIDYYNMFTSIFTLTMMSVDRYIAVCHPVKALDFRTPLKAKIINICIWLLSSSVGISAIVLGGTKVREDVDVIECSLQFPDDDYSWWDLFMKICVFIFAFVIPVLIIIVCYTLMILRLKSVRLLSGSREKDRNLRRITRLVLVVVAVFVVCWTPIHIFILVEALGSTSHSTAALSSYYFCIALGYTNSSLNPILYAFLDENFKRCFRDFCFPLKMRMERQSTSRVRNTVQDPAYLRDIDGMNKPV

[43] = target: Muscarinic acetylcholine receptor M4 (Homo sapiens) (UniProt P08173); details: Compound concentration 10.0 uM
Sequence of Muscarinic acetylcholine receptor M4 (Homo sapiens) (P08173 whole entry): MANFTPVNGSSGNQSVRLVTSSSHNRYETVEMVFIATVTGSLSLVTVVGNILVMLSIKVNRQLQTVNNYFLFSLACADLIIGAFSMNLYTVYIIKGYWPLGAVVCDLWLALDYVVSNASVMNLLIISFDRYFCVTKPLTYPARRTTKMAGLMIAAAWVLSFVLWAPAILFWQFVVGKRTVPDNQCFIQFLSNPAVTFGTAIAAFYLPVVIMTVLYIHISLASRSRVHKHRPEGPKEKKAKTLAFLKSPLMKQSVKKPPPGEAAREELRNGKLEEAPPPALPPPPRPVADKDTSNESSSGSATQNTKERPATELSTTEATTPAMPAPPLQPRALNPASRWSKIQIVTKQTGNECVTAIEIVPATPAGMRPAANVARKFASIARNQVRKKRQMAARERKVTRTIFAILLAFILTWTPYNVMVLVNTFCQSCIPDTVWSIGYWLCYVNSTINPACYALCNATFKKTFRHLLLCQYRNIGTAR

[44] = target: Beta-3 adrenergic receptor (Homo sapiens) (UniProt P13945); details: Compound concentration 10.0 uM
Sequence of Beta-3 adrenergic receptor (Homo sapiens) (P13945 whole entry, looked up): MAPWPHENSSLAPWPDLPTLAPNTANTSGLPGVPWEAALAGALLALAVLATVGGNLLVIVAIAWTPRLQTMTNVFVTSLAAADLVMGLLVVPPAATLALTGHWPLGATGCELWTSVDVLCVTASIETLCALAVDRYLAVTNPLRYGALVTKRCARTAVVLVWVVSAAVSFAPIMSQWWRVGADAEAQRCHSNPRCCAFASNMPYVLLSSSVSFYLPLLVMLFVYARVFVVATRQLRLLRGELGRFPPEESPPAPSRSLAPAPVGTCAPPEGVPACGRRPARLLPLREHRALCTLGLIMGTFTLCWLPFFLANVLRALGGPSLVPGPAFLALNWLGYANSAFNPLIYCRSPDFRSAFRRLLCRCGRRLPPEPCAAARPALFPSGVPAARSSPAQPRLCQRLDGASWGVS

Cc1nc(N2CC[C@@H](O)C2)ncc1-c1cc(C(F)(F)F)cc2[nH]ncc12 [TP-004]
inactive: residual activity [1] 100% | residual activity [2] 100% | residual activity [3] 100% | residual activity [4] 87% | residual activity [5] 100% | residual activity [6] 77% | residual activity [7] 76% | residual activity [8] 100% | residual activity [9] 77% | residual activity [10] 61% | residual activity [11] 87% | residual activity [12] 100% | residual activity [13] 88% | residual activity [14] 100% | residual activity [15] 67% | residual activity [16] 61% | residual activity [17] 100% | residual activity [18] 100% | residual activity [19] 100% | residual activity [20] 96% | residual activity [21] 92% | residual activity [22] 81% | residual activity [23] 68% | residual activity [24] 100% | residual activity [25] 90% | residual activity [26] 52% | residual activity [27] 97% | residual activity [28] 93% | residual activity [29] 88% | residual activity [30] 88% | residual activity [31] 84% | residual activity [32] 100% | residual activity [33] 90% | residual activity [34] 90% | residual activity [35] 99% | residual activity [36] 100% | residual activity [37] 58% | residual activity [38] 100% | residual activity [39] 65% | inhibition [40] -1.83% | inhibition [41] -0.722% | inhibition [42] 7.69% | inhibition [43] 5.7% | inhibition [44] 20.7%
